These results are taken from patent publication US7807703B2, “Substituted aryl ketones” (Bayer CropScience AG, priority 2002, dated 2010).

The nature of the data set: log P determination by reversed-phase HPLC (EEC Directive 79/831 Annex V.A8; acidic or neutral mobile phase). As to conditions: for log P / chromatographic logP / log P (acidic) / logP (HPLC, mobile phase not marked): HPLC, reversed-phase C 18, 43° C.; for log P / chromatographic logP / logP (HPLC, mobile phase not marked): mobile phase range not marked; for chromatographic logP: reversed-phase C18 HPLC column, read-out: log P; for log P (acidic): acetonitrile (marked a) or acidic). The data set is classed as physicochemical. How it is done:
The log P values given in the table were determined in accordance with EEC Directive 79/831 Annex V.A8 by HPLC (High Performance Liquid Chromatography) using a reversed-phase column (C 18). Temperature: 43° C.
(a) Mobile phases for the determination in the acidic range: 0.1% aqueous phosphoric acid, acetonitrile; linear gradient from 10% acetonitrile to 90% acetonitrile—the corresponding measurement results are marked a) in Table 1.
(b) Mobile phases for the determination in the neutral range: 0.01 molar aqueous phosphate buffer solution, acetonitrile; linear gradient from 10% acetonitrile to 90% acetonitrile—the corresponding measurement results are marked b) in Table 1.

[1] abbreviates: HPLC reversed-phase C18, 43° C., acidic range: 0.1% aqueous phosphoric acid, acetonitrile gradient (marked a)).
Setting [2] is: HPLC, reversed-phase C18, 43° C.; acidic range a): 0.1% aqueous phosphoric acid, acetonitrile, linear gradient 10% to 90% acetonitrile.
Where [3] appears, read: acidic range: 0.1% aqueous phosphoric acid.

Regarding `CCONCc1c(S(C)(=O)=O)ccc(C(=O)c2cnn(CC)c2O)c1Cl` [Example 136], under setting [1], the logP result is reported as “logP = 1.58^a)”.

With `CCON(CC)Cc1c(S(C)(=O)=O)ccc(C(=O)OC)c1Cl` [VIII-12], the “log P” value is reported as “logP = 3.06”.

`CN(Cc1c(S(C)(=O)=O)ccc(C(=O)C2C(=O)CCCC2=O)c1Cl)S(C)(=O)=O` [Example 454]: under setting [2], the logP result was “logP = 1.84^a)”.

With `Cc1c(C(=O)C2C(=O)CCCC2=O)ccc(Br)c1OCCNS(C)(=O)=O` [Example 367], under setting [2], the logP entry is given as “logP = 2.19^a)”.

Take `CCn1ncc(C(=O)c2ccc(S(C)(=O)=O)c(CN(CC3CCOC3)OC3CCCC3)c2Cl)c1O` (centres unmarked) [Example 417]: under setting [2], the logP result is listed as “(I-2) logP = 2.76^a)”.

For the molecule `CCN(Cc1c(S(C)(=O)=O)ccc(C(=O)c2cnn(C)c2O)c1Cl)S(C)(=O)=O` [Example 469], the logP result under setting [2] was “logP = 1.22^a)”.

In the case of `C=CCN(Cc1c(S(C)(=O)=O)ccc(C(=O)C2C(=O)CCCC2=O)c1Cl)OC` [Example 158], the logP result under setting [1] is listed as “(I-2) logP = 3.01^a)”.

Turning to `CCN(Cc1c(Cl)ccc(C(=O)OC)c1Cl)OC` [VIII-9], the “log P” value is reported as “logP = 3.72”.

`CCOC(=O)c1ccc(Cl)c(OCCNC(=O)OC(C)(C)C)c1Cl` [ethyl 2,4-dichloro-3-[2-[(t-butoxycarbonyl)amino]ethoxy]benzoate]: the chromatographic logP was determined as 3.79.

Turning to `CCn1ncc(C(=O)c2ccc(Br)c(OCCNS(C)(=O)=O)c2C)c1O` [Example 365], the logP result under setting [2] is “logP = 1.89^a)”.

Turning to `C=CCN(Cc1c(S(C)(=O)=O)ccc(C(=O)C2C(=O)CCCC2=O)c1Cl)S(C)(=O)=O` [Example 460], the logP result under setting [2] is “logP = 2.17^a)”.

For the molecule `CCON(C)Cc1c(S(C)(=O)=O)ccc(C(=O)C2C(=O)CCCC2=O)c1Cl` [Example 424], the logP result under setting [2] is “logP = 2.82^a)”.

As to `CCn1ncc(C(=O)c2ccc(S(C)(=O)=O)c(CNOCc3ccccc3)c2Cl)c1O` [Example 200], the logP entry (HPLC reversed-phase C18, 43° C., acidic range: 0.1% aqueous phosphoric acid, acetonitrile (marked a))) is “(I-2) logP = 2.31^a)”.

For `COC(=O)c1ccc(Cl)c(CN(C)S(C)(=O)=O)c1Cl` [VIII-68], the “log P (acidic)” value under setting [3] was “logPacidic = 2.15”.

For the molecule `CS(=O)(=O)NCCOc1c(Cl)ccc(C(=O)O)c1Cl` [II-2, 2,4-dichloro-3-(2-methylsulphonylaminoethoxy)benzoic acid], the chromatographic logP turned out to be 1.36.

Take `CCn1ncc(C(=O)c2ccc(S(C)(=O)=O)c(CN(C)OC)c2Cl)c1O` [Example 304]: the “logP (HPLC, mobile phase not marked)” value was found to be 1.78.

As to `CN(Cc1c(S(C)(=O)=O)ccc(C(=O)C2C(=O)CCC(C)(C)C2=O)c1Cl)S(C)(=O)=O` (centres unmarked) [Example 455], the logP result under setting [2] was “(I-2) logP = 2.43^a)”.

Turning to `COC(=O)c1ccc(S(C)(=O)=O)c(CN(Cc2ccccc2)OC)c1Cl` [VIII-24], the “log P (acidic)” value under setting [3] was “logPacidic = 3.42”.

`CC(C)ON(Cc1c(S(C)(=O)=O)ccc(C(=O)C2C(=O)CCC(C)(C)C2=O)c1Cl)C(C)C` (centres unmarked) [Example 399]: under setting [2], the logP entry is recorded as “(I-2) logP = 4.80^a)”.

Regarding `CON(Cc1c(S(C)(=O)=O)ccc(C(=O)c2cnn(C)c2O)c1Cl)C1CCCC1` [Example 378], the logP entry under setting [2] is recorded as “(I-2) logP = 2.59^a)”.

Consider `CCS(=O)(=O)NCCOc1c(Cl)ccc(C(=O)C2C(=O)CCCC2=O)c1C` [Example 359], for which the logP result under setting [2] is “logP = 2.33^a)”.

With `CON(C)Cc1c(Cl)ccc(C(=O)O)c1Cl` [II-1, 2,4-dichloro-3-(N-methoxy-N-methylaminomethyl)benzoic acid], the chromatographic logP was determined as 1.99.

In the case of `COC(=O)c1ccc(S(C)(=O)=O)c(CN(OC)C2CCCC2)c1Cl` [VIII-38], under setting [3], the “log P (acidic)” value was “logPacidic = 3.67”.

`CS(=O)(=O)NCCOc1c(S(C)(=O)=O)ccc(C(=O)C2C(=O)CCCC2=O)c1Cl` [Example 14]: the logP entry under setting [1] was “logP = 1.76^a)”.

As for `CCn1ncc(C(=O)c2ccc(S(C)(=O)=O)c(CN(Cc3ccccc3)OC)c2Cl)c1O` [Example 153], the logP result under setting [1] was “(I-2) logP = 2.82^a)”.

With `COC(=O)c1ccc(S(C)(=O)=O)c(CN(OC)C2CCOC2)c1Cl` (centres unmarked) [VIII-58], the “log P (acidic)” value under setting [3] is given as “logPacidic = 2.17”.

As for `CON(Cc1cccnc1)Cc1c(S(C)(=O)=O)ccc(C(=O)c2cnn(C)c2O)c1Cl` [Example 386], the logP entry under setting [2] is given as “(I-2) logP = 0.64^a)”.

Turning to `CCN(Cc1c(S(C)(=O)=O)ccc(C(=O)c2cnn(CC)c2O)c1Cl)S(C)(=O)=O` [Example 468], the logP entry under setting [2] is “logP = 1.48^a)”.

Take `CCOC(=O)c1ccc(Cl)c(OCCNS(=O)(=O)CCl)c1Cl` [VIII-16]: the “log P” value is listed as “logP = 2.80”.

As for `CCn1ncc(C(=O)c2ccc(Cl)c(OCCNS(=O)(=O)C(C)C)c2Cl)c1O` [Example 24], the logP entry under setting [1] was “logP = 2.07^a)”.

For the molecule `COc1c(C(=O)c2cnn(C)c2O)ccc(Cl)c1CN(C)OC` [Example 478], the logP result under setting [2] is “logP = 1.90^a)”.

Consider `CON(Cc1c(S(C)(=O)=O)ccc(C(=O)C2C(=O)CCCC2=O)c1Cl)CC1CCOC1` (centres unmarked) [Example 408], for which the logP entry under setting [2] is on record as “(I-2) logP = 2.50^a)”.

Turning to `CN(Cc1c(S(C)(=O)=O)ccc(C(=O)c2cnn(C)c2O)c1Cl)S(C)(=O)=O` [Example 453], the logP entry under setting [2] is given as “logP = 0.99^a)”.

Take `COc1c(C(=O)C2C(=O)CCCC2=O)ccc(Cl)c1CN(C)OC` [Example 477]: the logP result under setting [2] is “logP = 2.63^a)”.

On to `COC(=O)c1ccc(S(C)(=O)=O)c(CN(Cc2cccnc2)OC)c1Cl` [VIII-42], for which the “log P (acidic)” value under setting [3] is listed as “logPacidic = 1.16”.

As to `CONCc1c(S(C)(=O)=O)ccc(C(=O)OC)c1Cl` [VIII-10], the “log P” value is recorded as “logP = 1.69”.

Consider `COC(=O)c1ccc(Cl)c(CN(C)OC)c1Cl` [VIII-8], for which the “log P” value was “logP = 3.08”.

With `CCn1ncc(C(=O)c2ccc(S(C)(=O)=O)c(CN(C)OCCOC)c2Cl)c1O` [Example 431], the logP entry under setting [2] is given as “(I-2) logP = 1.80^a)”.

On to `COC(=O)c1ccc(S(C)(=O)=O)c(CN(Cc2ccccn2)OC)c1Cl` [VIII-41], for which the “log P (acidic)” value under setting [3] was “logPacidic = 1.17”.

On to `CCn1ncc(C(=O)c2ccc(Cl)c(OCCNS(=O)(=O)C(F)(F)F)c2Cl)c1O` [Example 10], for which the logP result under setting [1] was “logP = 2.72^a)”.

For the molecule `CCS(=O)(=O)NCCOc1c(Br)ccc(C(=O)OC)c1C` [VIII-29], the “log P (acidic)” value under setting [3] is given as “logPacidic = 2.46”.

Regarding `COC(=O)c1ccc(S(C)(=O)=O)c(CN(CC2CCOC2)OC)c1Cl` (centres unmarked) [VIII-54], the “log P (acidic)” value under setting [3] is listed as “logPacidic = 2.35”.

As to `COC(=O)c1ccc(S(C)(=O)=O)c(CN(OC)C(=O)C(F)(F)F)c1Cl` [VIII-50], under setting [3], the “log P (acidic)” value was “logPacidic = 2.60”.

Take `CCn1ncc(C(=O)c2ccc(S(C)(=O)=O)c(CNOC)c2Cl)c1O` [Example 299]: the “logP (HPLC, mobile phase not marked)” value is 1.20.

Turning to `COC(=O)c1ccc(S(C)(=O)=O)c(CN(C)OCCOc2ccccc2)c1Cl` [VIII-63], the “log P (acidic)” value under setting [3] is given as “logPacidic = 3.37”.

As for `CN(Cc1c(S(C)(=O)=O)ccc(C(=O)C2C(=O)CCC(C)(C)C2=O)c1Cl)OCC1CCOC1` (centres unmarked) [Example 436], the logP entry under setting [2] is given as “(I-2) logP = 3.49^a)”.

On to `CCON(Cc1c(S(C)(=O)=O)ccc(C(=O)OC)c1Cl)C(C)C` [VIII-44], for which the “log P (acidic)” value under setting [3] was “logPacidic = 3.52”.

`CCN(Cc1c(S(C)(=O)=O)ccc(C(=O)OC)c1Cl)OC(C)C` [VIII-46]: under setting [3], the “log P (acidic)” value is given as “logPacidic = 3.39”.

Take `CN(Cc1c(S(C)(=O)=O)ccc(C(=O)c2cnn(C)c2O)c1Cl)OCC1CCOC1` (centres unmarked) [Example 437]: under setting [2], the logP result is on record as “(I-2) logP = 1.73^a)”.

As to `CCONCc1c(Cl)ccc(C(=O)OC)c1OC` [VIII-13], the “log P” value is listed as “logP = 2.27”.

As for `COC(=O)c1ccc(S(C)(=O)=O)c(CN(C)OC2CCCC2)c1Cl` [VIII-49], the “log P (acidic)” value under setting [3] is “logPacidic = 3.48”.

As to `CCN(Cc1c(Cl)ccc(C(=O)c2cnn(C)c2O)c1OC)S(C)(=O)=O` [Example 463], the logP result under setting [2] is given as “logP = 1.80^a)”.

Regarding `CCONCc1c(Cl)ccc(C(=O)c2cnn(CC)c2O)c1Cl` [Example 134], the logP entry under setting [1] is “logP = 2.07^a)”.

Take `CONCc1c(S(C)(=O)=O)ccc(C(=O)OC)c1Cl` [VIII-21]: under setting [3], the “log P (acidic)” value is recorded as “logPacidic = 1.69”.

Turning to `CON(Cc1c(S(C)(=O)=O)ccc(C(=O)c2cnn(C)c2O)c1Cl)C(C)C` [Example 345], the “logP (HPLC, mobile phase not marked)” value is on record as 2.16.

Consider `CCn1ncc(C(=O)c2ccc(Cl)c(OCCNS(=O)(=O)CCl)c2Cl)c1O` [Example 8], for which, under setting [1], the logP entry is reported as “logP = 2.05^a)”.

For `CCN(Cc1c(S(C)(=O)=O)ccc(C(=O)C2C(=O)CCCC2=O)c1Cl)OC` [Example 150], the logP entry under setting [1] is given as “logP = 2.87^a)”.

As for `Cc1c(C(=O)C2C(=O)CCCC2=O)ccc(Cl)c1OCCNS(C)(=O)=O` [Example 361], under setting [2], the logP result is recorded as “logP = 2.13^a)”.

On to `CCn1ncc(C(=O)c2ccc(S(C)(=O)=O)c(CN(C)OC3CCCC3)c2Cl)c1O` [Example 397], for which, under setting [2], the logP entry was “(I-2) logP = 2.87^a)”.

`COC(=O)c1ccc(S(C)(=O)=O)c(CN(OC)C2CCCOC2)c1Cl` (centres unmarked) [VIII-59]: the “log P (acidic)” value under setting [3] is listed as “logPacidic = 2.55”.

As for `CCn1ncc(C(=O)c2ccc(S(C)(=O)=O)c(CN(C)OCC3CCOC3)c2Cl)c1O` (centres unmarked) [Example 435], under setting [2], the logP entry is on record as “(I-2) logP = 2.03^a)”.

On to `COC(=O)c1ccc(Br)c(OCCNS(C)(=O)=O)c1Br` [VIII-32], for which, under setting [3], the “log P (acidic)” value was “logPacidic = 2.13”.

Take `COC(=O)c1ccc(S(C)(=O)=O)c(CN(C)S(C)(=O)=O)c1Cl` [VIII-69]: under setting [3], the “log P (acidic)” value was “logPacidic = 1.65”.

As to `CCn1ncc(C(=O)c2ccc(Cl)c(CNOC)c2Cl)c1O` [Example 130], the logP result under setting [1] is listed as “logP = 1.68^a)”.

`C=CCN(Cc1c(S(C)(=O)=O)ccc(C(=O)c2cnn(CC)c2O)c1Cl)S(C)(=O)=O` [Example 461]: the logP result under setting [2] is “logP = 1.63^a)”.
